What was measured:
[1] = Solubility in paraffin wax vehicle; type: physicochemical; conditions: paraffin wax vehicle could not be used
[2] = Percutaneous passage of GSK2256294 topical formulations in Franz's cells on pig ear skin (Example 5); type: in vitro ADME
Experimental: First GSK2256294 topical formulations used DMSO and water 50/50% as vehicle. The experiments were conducted with Franz's cell using the skin of a pig's ear. The donor compartment was filled by an 20 μL of solution with a concentration between 100 to 400 μg/g of GSK2256294. The receptor medium was constituted by 4.5 mL of PBS, was at 32° C. and under magnetic stirring. Samples from the receptor compartment were collected at different times over 24 hours to determine the passage flow of GSK2256294. Second GSK2256294 topical formulation using alcohol, isopropanol, propylene glycol and DMSO 50/50% as vehicle with a GSK2256294's concentration at 200 μg/g were tested in the same conditions. Samples were then frozen at −20° C. The […] quantification was realized by HPLC/MS/MSS.

[3] = Percutaneous absorption using Franz's cells on pigskin, influence of the solvent (Example 1)
Experimental: The skin of a pig's ears was chosen for the experiments as it is very similar to that of a human skin. […] The receptor compartment contained 4.5 mL of PBS and was under magnetic stirring. […] Samples were frozen at −20° C.

[4] = GSK2256294 4 μg/mL, vehicle DMSO/water 50%/50%
[5] = GSK2256294 40 μg/mL, 'with DMSO'
[6] = GSK2256294 40 μg/mL, vehicle DMSO/water 50%/50%
[7] = GSK2256294, vehicle water at pH3
[8] = GSK2256294, vehicle water at pH3/alcohol 50/50%

- solubility in paraffin wax [1]: lack of solubility
- flow between 4 and 12 h ([2]; DMSO/water 50/50%, GSK2256294 200 μg/g): 64.83 ng/h/cm^2
- flow between 4 and 12 h ([2]; DMSO/water 50/50%, lower end of GSK2256294 concentration range 100 to 400 μg/g): 41.92 ng/h/cm^2
- flow between 4 and 12 h ([2]; DMSO/water 50/50%, upper end of GSK2256294 concentration range 100 to 400 μg/g): 102.26 ng/h/cm^2
- flow between 4 and 12 h ([2]; alcohol/water 50/50%, GSK2256294 200 μg/g): 55.9 ng/h/cm^2
- flow between 4 and 12 h ([2]; isopropanol/water 50/50%, GSK2256294 200 μg/g): 74.38 ng/h/cm^2
- flow between 4 and 12 h ([2]; propylene glycol/water 50/50%, GSK2256294 200 μg/g): 48.49 ng/h/cm^2
- absorbed and released by the pigskin over 24 hrs [3, 4]: 10.5%
- percutaneous absorption flow [3, 4]: 21.9 ng/cm^2/h
- passage rate [3, 5]: 7.04%
- percutaneous absorption flow [3, 5]: 134.1 ng/cm^2/h
- absorbed and released by the pigskin over 24 hrs [3, 6]: 9.02%
- percutaneous absorption flow [3, 6]: 167.4 ng/cm^2/h
- percutaneous absorption flow ([3]; GSK2256294, vehicle PEG400): No flow
- passage rate [3, 7]: 8.31%
- percutaneous absorption flow [3, 7]: 167.4 ng/cm^2/h
- passage rate [3, 8]: 3.52%
- percutaneous absorption flow [3, 8]: 38.6 ng/cm^2/h
SMILES: CNc1nc(C)nc(N[C@H]2CCC[C@@H](C(=O)NCc3ccc(C#N)cc3C(F)(F)F)C2)n1 [GSK2256294, (1R,3S)—N-[[4-cyano-2-(trifluoromethyl)phenyl]methyl]-3-[[4-methyl-6-(methylamino)-1,3,5-triazin-2-yl]amino]cyclohexane-1-carboxamide]

— patent US20210378995A1, “METHODS AND TOPICAL PHARMACEUTICAL COMPOSITIONS FOR THE TREATMENT OF SKIN MICROVASCULAR DYSFUNCTION” (INSERM (INSTITUT NATIONAL DE LA SANTÉ ET DE LA RECHERCHE …, priority 2018, published 2021)
